The text below walks through data of ChEMBL document CHEMBL3875212, “Novel thrombopoietin mimetic peptides bind c-Mpl receptor: Synthesis, biological evaluation and molecular modeling” (Bioorg Med Chem, 2017).

Calls of active or inactive are those of the source. No cut-off for these calls is given here. Residues, ends and D or L forms follow the SMILES beside them.

The test deals with T1, Thrombopoietin receptor (Homo sapiens) (UniProt P40238).
T1 sequence (whole entry): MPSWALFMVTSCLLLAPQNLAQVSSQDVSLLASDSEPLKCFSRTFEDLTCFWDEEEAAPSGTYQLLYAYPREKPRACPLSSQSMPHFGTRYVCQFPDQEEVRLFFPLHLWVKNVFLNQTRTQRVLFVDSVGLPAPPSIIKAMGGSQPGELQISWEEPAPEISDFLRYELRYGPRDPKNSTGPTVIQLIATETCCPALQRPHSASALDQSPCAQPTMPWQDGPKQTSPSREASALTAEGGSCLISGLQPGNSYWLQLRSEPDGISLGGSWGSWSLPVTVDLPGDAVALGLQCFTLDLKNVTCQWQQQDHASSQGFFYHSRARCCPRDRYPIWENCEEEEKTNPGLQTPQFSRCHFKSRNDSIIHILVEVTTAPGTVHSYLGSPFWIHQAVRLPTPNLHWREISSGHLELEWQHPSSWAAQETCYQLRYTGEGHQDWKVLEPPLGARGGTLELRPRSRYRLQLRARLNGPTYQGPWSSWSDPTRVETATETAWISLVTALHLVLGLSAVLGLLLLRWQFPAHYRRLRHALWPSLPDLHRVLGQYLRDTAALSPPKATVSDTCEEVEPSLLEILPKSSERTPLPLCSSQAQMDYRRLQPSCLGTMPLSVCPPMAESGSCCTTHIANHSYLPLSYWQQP
In words: Binding affinity to c-Mpl (unknown origin) expressed in […] NIH-3T3 cells after 48 hrs by dual-glo luciferase reporter gene assay relative to control. In kind it is cell-based. The conditions noted are these: NIH3T3. (A reporter such as luciferase makes a cellular process visible.)

In the case of `CC[C@H](C)[C@H](N)C(=O)N[C@@H](CCC(=O)O)C(=O)NCC(=O)N1CCC[C@H]1C(=O)N[C@H](C(=O)N[C@@H](CC(C)C)C(=O)N[C@@H](CCCNC(=N)N)C(=O)N[C@@H](CCC(N)=O)C(=O)N[C@@H](Cc1c[nH]c2ccccc12)C(=O)N[C@@H](CC(C)C)C(=O)N[C@@H](C)C(=O)N[C@@H](C)C(=O)N[C@@H](CCCNC(=N)N)C(=O)N[C@@H](C)C(=O)NCC(=O)NCC(=O)N1CCC[C@H]1C(=O)N[C@@H](CO)C(=O)NCC(=O)N[C@H](C(=O)N[C@@H](CCC(=O)O)C(=O)NCC(=O)N1CCC[C@H]1C(=O)N[C@H](C(=O)N[C@@H](CC(C)C)C(=O)N[C@@H](CCCNC(=N)N)C(=O)N[C@@H](CCC(N)=O)C(=O)N[C@@H](Cc1c[nH]c2ccccc12)C(=O)N[C@@H](CC(C)C)C(=O)N[C@@H](C)C(=O)N[C@@H](C)C(=O)N[C@@H](CCCNC(=N)N)C(=O)N[C@@H](C)C(=O)O)[C@@H](C)O)[C@@H](C)CC)[C@@H](C)O` (H-IEGPTLRQWLAARAGGPSGIEGPTLRQWLAARA-OH), the result was Active.

`CC[C@H](C)[C@H](N)C(=O)N[C@@H](CCC(=O)O)C(=O)NCC(=O)N1CCC[C@H]1C(=O)N[C@H](C(=O)N[C@@H](CC(C)C)C(=O)N[C@@H](CCCNC(=N)N)C(=O)N[C@@H](CCC(N)=O)C(=O)N[C@@H](Cc1c[nH]c2ccccc12)C(=O)N[C@@H](CC(C)C)C(=O)N[C@@H](C)C(=O)N[C@@H](C)C(=O)N[C@@H](CCCNC(=N)N)C(=O)N[C@@H](C)C(=O)NCC(=O)NCC(=O)NCC(=O)N[C@@H](CO)C(=O)NCC(=O)N[C@H](C(=O)N[C@@H](CCC(=O)O)C(=O)NCC(=O)N1CCC[C@H]1C(=O)N[C@H](C(=O)N[C@@H](CC(C)C)C(=O)N[C@@H](CCCNC(=N)N)C(=O)N[C@@H](CCC(N)=O)C(=O)N[C@@H](Cc1c[nH]c2ccccc12)C(=O)N[C@@H](CC(C)C)C(=O)N[C@@H](C)C(=O)N[C@@H](C)C(=O)N[C@@H](CCCNC(=N)N)C(=O)N[C@@H](C)C(=O)O)[C@@H](C)O)[C@@H](C)CC)[C@@H](C)O` (H-IEGPTLRQWLAARAGGGSGIEGPTLRQWLAARA-OH): the result was Active. In the case of `CC[C@H](C)[C@H](N)C(=O)N[C@@H](CCC(=O)O)C(=O)NCC(=O)N1CCC[C@H]1C(=O)N[C@H](C(=O)N[C@@H](CC(C)C)C(=O)N[C@@H](CCCNC(=N)N)C(=O)N[C@@H](CCC(N)=O)C(=O)N[C@@H](Cc1c[nH]c2ccccc12)C(=O)N[C@@H](CC(C)C)C(=O)N[C@@H](C)C(=O)N[C@@H](C)C(=O)N[C@@H](CCCNC(=N)N)C(=O)N[C@@H](C)C(=O)NCC(=O)NCC(=O)NCC(=O)NCC(=O)N[C@@H](CO)C(=O)NCC(=O)NCC(=O)NCC(=O)N[C@@H](CO)C(=O)NCC(=O)N[C@H](C(=O)N[C@@H](CCC(=O)O)C(=O)NCC(=O)N1CCC[C@H]1C(=O)N[C@H](C(=O)N[C@@H](CC(C)C)C(=O)N[C@@H](CCCNC(=N)N)C(=O)N[C@@H](CCC(N)=O)C(=O)N[C@@H](Cc1c[nH]c2ccccc12)C(=O)N[C@@H](CC(C)C)C(=O)N[C@@H](C)C(=O)N[C@@H](C)C(=O)N[C@@H](CCCNC(=N)N)C(=O)N[C@@H](C)C(=O)O)[C@@H](C)O)[C@@H](C)CC)[C@@H](C)O` (H-IEGPTLRQWLAARAGGGGSGGGSGIEGPTLRQWLAARA-OH), the outcome was Active.
